Measurements: patent US20230183305A1, “KERATIN BD-11, PREPARATION METHOD THEREFOR AND PHARMACEUTICAL COMPOSITION AND USE THEREOF” (INSTITUTE OF MATERIA MEDICA, CHINESE ACADEMY OF MEDICAL …, priority 2019, published 2023)
Structures can show the parent of a compound that is named as a salt. Marks after values point to notes of the source that are not given here.

How the values were obtained:
[1] = tested on: tracheal phenol red excretion in ICR mice; assay: Expectorant test, phenol red excretion method in mice; format: in vivo, mouse
Procedure: • Animals: male ICR mice; • Drugs and reagents: Mucosolvan (ambroxol hydrochloride tablets), phenol red, sodium bicarbonate, protein BD-11; • Instruments: centrifuge (Sigma-3K15 type), balance (XS105DU type), Microplate tester (BIO-TEK type).
Experiment grouping: • Solvent control group; • Mucosolvan 30 mg/kg group; • Protein BD-11, 20 mg/kg group, 50 mg/kg group.
The animals were fasted and water was taken freely 16 hours before the experiment. Orally administered Mucosolvan and different doses of protein BD-11 (administration volume 10 ml/kg) in groups, and the solvent control group was given the same volume of distilled water. One hour later, 2.5% phenol red solution was injected intraperitoneally. Mice were sacrificed by neck dislocation after 30 minutes. Take a trachea from below the thyroid cartilage to the branch of the trachea, and put the trachea into 3 ml 5% NaHCO3 solution and let it stand for 3 hours. Take 1 ml of the supernatant and centrifuge at 3000 rpm for 5 minutes. Measure and record the absorbance at 546 nm. According to the standard curve of phenol red, the excretion of phenol red was calculated.
Record the time point of oral administration, the time point of intraperitoneal injection of 2.5% phenol red solution, and the time point of taking the trachea respectively; The absorbance of each group of samples was measured by the microplate reader at 546 nm, Calculate the excretion of phenol red according to the standard curve of phenol red. Calculate the mean and standard error of the data in each group, and use TTEST to compare the solvent control group with other groups, and P<0.05 is considered as a significant difference.
Give Mucosolvan (30 mg/kg) and different doses of protein BD-11 (20 mg/kg, 50 mg/kg). One hour later, 2.5% phenol red solution was intraperitoneally injected, and 30 minutes later, the mice were sacrificed by neck dislocation. Take the trachea from below the thyroid cartilage to the branch of the trachea, put the trachea into 3 ml of 5% NaHCO3 solution and let it stand for 3 hours, take 1 ml of supernatant, centrifuge at 3000 rpm for 5 minutes, measure and record the absorbance at 546 nm. According to the standard curve of phenol red, the excretion of phenol red was calculated.

[2] = tested on: acetic acid writhing in ICR mice; assay: Acetic acid writhing test in ICR mice; format: in vivo, mouse
Procedure: • Animals: male ICR mice; • Drugs and reagents: aspirin, physiological saline, glacial acetic acid, protein BD-11.
Experiment grouping: • Model group; • Aspirin 300 mg/kg group; • Protein BD-11, 50 mg/kg group, 200 mg/kg group.
One day after the experimental animals adapt to the environment, Aspirin 300 mg/kg, protein BD-11 50 mg/kg, 200 mg/kg were given orally one hour in advance, and the administration volume was 10 ml/kg; Then, 0.6% acetic acid solution was injected intraperitoneally, and the incubation period (seconds) and frequency of writhing in the animal was observed within 15 minutes.
Calculate the mean and standard error of the data in each group. Compared with the model group by TTEST, P<0.05 was considered as statistically different.
One hour after oral administration of aspirin 300 mg/kg and different doses of protein BD-11 (50 mg/kg, 200 mg/kg), 0.6% acetic acid solution was intraperitoneally injected to observe the writhing incubation period and frequency of ICR mice.
0.6% acetic acid solution was injected into the abdominal cavity of mice, which caused deep and large area and long-term painful stimulation, causing the mice to writhe (the abdomen was contracted into an “S” shape, the trunk and hind legs were stretched, the buttocks were raised and creeping). The incubation time to start writhing and times of writhing in mice were used as the pain response indexs to determine whether the test sample had analgesic effect. […] Compared with the model group, P<0.05, which is statistically significant.

[3] = tested on: lipopolysaccharide (LPS) induced fever in SD rats; assay: Lipopolysaccharide (LPS) induced fever model in SD rats; format: in vivo, rat; settings: aspirin 300 mg/kg oral
Procedure: • Animals: 230-260 grams of male SD rats; • Drugs: lipopolysaccharide (LPS, SIGMAL-2880), aspirin (SIGMA A2093), protein BD-11; • Instruments: electronic balance (SARTORIUS BP121S type), electronic clinical thermometer (CITIZEN CT-513W type).
Experiment grouping: • Normal control group; • Model group: lipopolysaccharide fever model; • Positive control group: Aspirin 300 mg/kg group; • Protein BD-11, 10 mg/kg group, 50 mg/kg group. Method: the method of intraperitoneal injection of Lipopolysaccharide to replicate rat fever model.
(§1) Preparation of experimental animals: After the experimental animals adapt to the experimental environment (temperature 22° C.±2° C., relative humidity 50%±2%) for 1 day. Pre-adaptation to measure rectal temperature at 8:00 and 15:00, rats were fasted and water was taken freely 12 h before experiment, and let the animal to empty its feces before measuring the rectal temperature. Apply petroleum jelly to the electronic thermometer probe before each temperature measurement. Insert the rat rectum 2 cm (can be marked at 2 cm to ensure that the depth of each insertion is consistent), and record the body temperature after the reading is stable.
Intraperitoneal injection of lipopolysaccharide to replicate rat fever model: The body temperature of the rats was measured before modeling. Qualified rats with a body temperature of 36.2-37.3° C. were selected and randomly divided into groups with 8 rats in each group. After oral administration of aspirin and different doses of protein BD-11, lipopolysaccharide (20 µg/kg, 2 ml/kg) was injected intraperitoneally immediately, and the normal control group was injected intraperitoneally with an equal volume of normal saline. The body temperatures of the rats were monitored after 2 hours for a total of 8 hours.
(§2) According to the body temperature measured at each time point on the day of the experiment, calculate the mean, standard deviation and standard error of the body temperature of each group of rats. The data of each group was compared with TTEST, and P<0.05 was considered as a significant difference.
Immediately after oral administration of aspirin (300 mg/kg), protein BD-11 (10 mg/kg, 50 mg/kg), intraperitoneal injection of 20 µg/kg lipopolysaccharide was performed to establish a model. The animal body temperature was monitored at 2 hours, 4 hours, 6 hours, and 8 hours after modeling.

[4] = tested on: yeast-induced fever model in SD rats; assay: Yeast-induced fever model in SD rats; format: in vivo, rat; settings: aspirin 300 mg/kg oral
Procedure: • Animals: 230-260 grams of male SD rats;; • Drugs: yeast (OXOID LP0021), aspirin (SIGMA A2093), protein BD-11; • Instruments: electronic balance (SARTORIUS BP121S type), electronic clinical thermometer (CITIZEN CT-513W type).
Experiment grouping: • Normal control group; • Model group: yeast fever model; • Positive control group: Aspirin 300 mg/kg group; • Protein BD-11, 10 mg/kg group, 50 mg/kg group.
as §1
Subcutaneous injection of dry yeast to replicate rat fever model: The body temperature of the rats was measured before modeling. Qualified rats with a body temperature of 36.2-37.3° C. were selected and randomly divided into groups with 8 rats in each group. After oral administration of aspirin and different doses of protein BD-11, 20% yeast suspension (10 ml/kg) was injected subcutaneously immediately, and the normal control group was injected intraperitoneally with an equal volume of normal saline. The body temperatures of the rats were monitored after 2 hours for a total of 8 hours.
as §2
Immediately after oral administration of aspirin (300 mg/kg), protein BD-11 (10 mg/kg, 50 mg/kg), subcutaneous injection of 20% yeast was performed to establish a model. The animal body temperature was monitored at 2 hours, 4 hours, 6 hours, and 8 hours after modeling.

[5] = Aspirin 300 mg/kg, P<0.05 vs model group
[6] = 2, 4, 6 and 8 hours after modeling, P<0.05 vs model group

Structure (SMILES)	Phenol red excretion ([1]; Mucosolvan 30 mg/kg oral, X±SEM, n=10) [µg/mL]	Amount of phenol red excretion vs solvent control group ([1]; Mucosolvan 30 mg/kg, P<0.05)	Effect on incubation period of writhing [2, 5]	Effect on times of writhing [2, 5]	Writhing incubation period ([2]; aspirin 300 mg/kg oral, 0.6% acetic acid i.p., n=13) [s]	Frequency of writhing ([2]; aspirin 300 mg/kg oral, within 15 minutes, n=13) [times]	Effect on the increase in body temperature of model rats [3, 6]	Body temperature 2 hours after modeling ([3]; 2 h after LPS 20 µg/kg i.p., n=8) [°C]	Body temperature 4 hours after modeling ([3]; 4 h after LPS 20 µg/kg i.p., n=8)	Body temperature 6 hours after modeling ([3]; 6 h after LPS 20 µg/kg i.p., n=8)	Body temperature 8 hours after modeling ([3]; 8 h after LPS 20 µg/kg i.p., n=8) [°C]	Effect on the increase in body temperature of model rats [4, 6]	Body temperature 2 hours after modeling ([4]; 2 h after 20% yeast s.c., n=8) [°C]	Body temperature 4 hours after modeling ([4]; 4 h after 20% yeast s.c., n=8) [°C]	Body temperature 6 hours after modeling ([4]; 6 h after 20% yeast s.c., n=8) [°C]	Body temperature 8 hours after modeling ([4]; 8 h after 20% yeast s.c., n=8) [°C]
Nc1c(Br)cc(Br)cc1CN[C@H]1CC[C@H](O)CC1 [Mucosolvan, ambroxol hydrochloride, reference compound]	1.061 ± 0.117	significantly increased														
CC(=O)Oc1ccccc1C(=O)O [aspirin, reference compound]			significantly delay	reduce the times of writhing	290.3 ± 37.0	15.2 ± 2.9	can effectively inhibit the increase in body temperature	36.8 ± 0.1	36.9### °C	36.8## °C	36.9±0.1	can effectively inhibit the increase in body temperature	37.0 ±0.1	37.0±0.1	37.0±0.1	37.0±0.1
